Reference: publication PMC7954794, “Protein context shapes the specificity of SH3 domain-mediated interactions in vivo” (Nature Communications, 2021)

System: growth of yeast strains under 51 stress conditions
Assay: Growth assays in 51 stress conditions (Fig. 1E-F, S2D, S5B)
Format: cell-based, Saccharomyces cerevisiae
Parameters: key to Growth (Fig. S2D) / growth of ABP1 SH3-swapped strains in stress condition: log2 colony size, average of median per strain (growth score)
Details: ABP1 SH3-swapped strains
Procedure: All WT, SH3-deleted, KO (except for CDC25 which is the only essential SH3-containing gene in yeast), ABP1 SH3-swapped, and SLA1 SH3-shuffled strains were grown on omnitrays in 1536 formats and robotically manipulated with a pin tool (the DHFR F[1,2] bait strains were used except for the KO strains). Each strain was randomly positioned in 6 replicates per plate and two plates per condition were performed, for 12 replicates per strain in total. A border of two rows and two columns of WT strains (BY4741) around the plate was used to remove border effects. Strains were grown on YPD media for two days at 30 °C. They were then replicated on 51 different media that are described in the Supplementary Table 3 and were incubated at 37 °C in a spImager custom platform with images acquired every two hours for four days. The colony sizes from plate pictures were also measured with the R package “Gitter” and the output was manually inspected. Positions with an abnormality in colony circularity were removed. The colony sizes after 74 h of incubation at 37 °C were log2 transformed and used for the analyses. First, the differences between the two plate replicates were corrected to remove plate effects. The median colony size was calculated for each strain per plate. Strains with a difference in their median colony size of more than two between the two plate replicates were removed. Finally, the average of the median colony size was calculated for each strain per condition (growth score).

## CDC25
Bathophenanthroline.0.1uM
  Growth (Fig. S2D): 10.8311
Bathophenanthroline.10uM
  Growth (Fig. S2D): 10.71
Bathophenanthroline.1uM
  Growth (Fig. S2D): 10.807
CaCl2.100mM
  Growth (Fig. S2D): 10.8749
CaCl2.250mM
  Growth (Fig. S2D): 10.774
CaCl2.500mM
  Growth (Fig. S2D): 10.2891
Caffein.10mM
  Growth (Fig. S2D): 10.1016
Caffein.2mM
  Growth (Fig. S2D): 11.0786
CdCl2.100uM
  Growth (Fig. S2D): 9.608
CdCl2.10uM
  Growth (Fig. S2D): 10.8752
CdCl2.50uM
  Growth (Fig. S2D): 9.913
CuSO4.1mM
  Growth (Fig. S2D): 10.4484
CuSO4.5mM
  Growth (Fig. S2D): 7.922
Cycloheximide.0.05.uM
  Growth (Fig. S2D): 11.0566
Cycloheximide.0.2.uM
  Growth (Fig. S2D): 10.636
Cycloheximide.0.5.uM
  Growth (Fig. S2D): 10.117
DMSO.2.
  Growth (Fig. S2D): 11.0377
DMSO.6.
  Growth (Fig. S2D): 9.934
DMSO.8.
  Growth (Fig. S2D): 9.291
Ethanol.2.
  Growth (Fig. S2D): 10.7941
Ethanol.6.
  Growth (Fig. S2D): 10.2979
Ethanol.8.
  Growth (Fig. S2D): 10.0965
Galactose.2.
  Growth (Fig. S2D): 10.7721
Glycerol.2.
  Growth (Fig. S2D): 9.727
Hydroxyurea.25mM
  Growth (Fig. S2D): 10.7845
Hygromycin.190uM
  Growth (Fig. S2D): 10.9998
Hygromycin.19uM
  Growth (Fig. S2D): 11.0292
Hygromycin.95uM
  Growth (Fig. S2D): 11.0306
MMS.0.004.
  Growth (Fig. S2D): 10.9713
MMS.0.02.
  Growth (Fig. S2D): 10.7211
MMS.0.04.
  Growth (Fig. S2D): 9.98
Menadione.100uM
  Growth (Fig. S2D): 10.5959
Menadione.200uM
  Growth (Fig. S2D): 10.4955
Menadione.50uM
  Growth (Fig. S2D): 10.8366
NaCl.0.25M
  Growth (Fig. S2D): 10.7898
NaCl.1M
  Growth (Fig. S2D): 9.773
Nitroquinoline.10uM
  Growth (Fig. S2D): 10.6639
Nitroquinoline.50uM
  Growth (Fig. S2D): 10.6019
Nystatin.0.01uM
  Growth (Fig. S2D): 11.0504
Nystatin.0.1uM
  Growth (Fig. S2D): 11.1
Raffinose.2.
  Growth (Fig. S2D): 11.0411
Rapamycin.10nM
  Growth (Fig. S2D): 9.922
Rapamycin.50nM
  Growth (Fig. S2D): 9.425
SC.pH3
  Growth (Fig. S2D): 10.4587
SC.pH6
  Growth (Fig. S2D): 11.0388
SDS.0.01.
  Growth (Fig. S2D): 11.0329
SDS.0.02.
  Growth (Fig. S2D): 11.0194
SDS.0.05.
  Growth (Fig. S2D): 10.8768
Sorbitol.10mM
  Growth (Fig. S2D): 11.0003
Sorbitol.1mM
  Growth (Fig. S2D): 11.0466
Sorbitol.5mM
  Growth (Fig. S2D): 10.9359
